Consider two compounds from US6472348B1, “Pyridone derivatives and herbicides” (Kumiai Chemical Industry Co., Ltd., priority 1996, dated 2002).

Data set [1] concerns corn (Ze). Put plainly: Test Example 11: crop plant selectivity by upland field foliage treatment (corn), phytotoxicity. Conditions: upland field foliage treatment, dose 1.6 g ai/10a, 14th day after treatment. In short, it runs like this: (§1)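 Corn with pale smartweed, slender amaranth, common lambsquarters and China jute sown in sand-filled pots and grown 2 weeks in a greenhouse before foliage treatment. Herbicidal effect and crop phytotoxicity scored on day 14 after treatment against a rating standard.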

Data set [2] relates to cotton (Go). Put plainly: Test Example 4: crop plant selectivity by upland field soil treatment (cotton), phytotoxicity. The class given is in vivo. The arrangement: scale not given here. Conditions: dose 6.3 g ai/10 a, evaluated 21st day after application. The essentials:
(§2)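 Upland soil treatment: crop and weed seeds in sand pots under a soil cover, compound applied to soil, greenhouse-grown, rated visually 21 d later.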

Data set [3] concerns common lambsquarters (Ch). Kind of data set: Test Example 9: crop plant selectivity by upland field foliage treatment (wheat), herbicidal effects. In kind it is in vivo. Also noted: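 grade of growth control; 5 = at least 90%; 4 = 70 to 90%; 3 = 50 to 70%; 2 = 30 to 50%; 1 = 10 to 30%; 0 = under 10%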. Conditions: dose 1.6 g ai/10a, 14th day after treatment. The essentials: (§3)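 Wheat and weeds sown in sand-filled pots, grown 2 weeks in a greenhouse, then foliage-treated. Herbicidal effect and crop phytotoxicity were scored 14 days after treatment against a rating scale.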

The subject of data set [4] is China jute (Ab). Described as above. In kind it is in vivo. Also noted: scale not given here. Conditions: dose 1.6 g ai/10a, 14th day after treatment. The essentials: as §3
Data set [5] has as its system pale smartweed (Po). Described as above. In kind it is in vivo. Also noted: scale not given here. Conditions: dose 1.6 g ai/10a, 14th day after treatment. In short, it runs like this:
as §3

Data set [6] concerns slender amaranth (Am). The data set is described as above. In kind it is in vivo. The arrangement: scale not given here. Conditions: dose 1.6 g ai/10a, 14th day after treatment. The essentials: as §3
The test system of data set [7] is rice flatsedge (Ci). Kind of data set: Test Example 3: herbicidal effects by upland field foliage treatment. Conditions: 100 g active ingredient per 10 ares, evaluated 14th day after treatment. The class given is in vivo. The arrangement: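 grade of growth control; 5 = at least 90%; 4 = 70 to 90%; 3 = 50 to 70%; 2 = 30 to 50%; 1 = 10 to 30%; 0 = under 10%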. The essentials: (§4)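 Using plants cultured for 2 weeks in a greenhouse from seed sown in soil-covered sand (pots 120 cm^2), the compounds were applied to foliage, and weed control was graded by standard criteria 14 days thereafter.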

The subject of data set [8] is common lambsquarters (Ch). The data set is described as above. Conditions: 100 g active ingredient per 10 ares, evaluated 14th day after treatment. The arrangement: scale not given here. The class given is in vivo. In short, it runs like this:
as §4

The test system of data set [9] is Diaitaria ciliaris (Di). Described as above. The class given is in vivo. The arrangement: scale not given here. Conditions: 100 g active ingredient per 10 ares, evaluated 14th day after treatment. In short, it runs like this: as §4
Data set [10] relates to pale smartweed (Po). Described as above. Conditions: 100 g active ingredient per 10 ares, evaluated 14th day after treatment. Also noted: scale not given here. In kind it is in vivo. The essentials:
as §4

In data set [11] the test system is slender amaranth (Am). Described as above. The class given is in vivo. The arrangement: scale not given here. Conditions: 100 g active ingredient per 10 ares, evaluated 14th day after treatment. The essentials: as §4
For data set [12], the system named is barnyardgrass (Ec). The data set is described as above. In kind it is in vivo. The arrangement: scale not given here. Conditions: 100 g active ingredient per 10 ares, evaluated 14th day after treatment. The essentials: as §4
In data set [13] the test system is common lambsquarters (Ch). Kind of data set: Test Example 4: crop plant selectivity by upland field soil treatment (cotton), herbicidal effects. The class given is in vivo. The arrangement: scale not given here. Conditions: dose 6.3 g ai/10 a, evaluated 21st day after application. In short, it runs like this: as §2
Data set [14] concerns China jute (Ab). The description is as above. The arrangement: scale not given here. In kind it is in vivo. Conditions: dose 6.3 g ai/10 a, evaluated 21st day after application. In short, it runs like this:
as §2

The subject of data set [15] is pale smartweed (Po). Described as above. In kind it is in vivo. The arrangement: scale not given here. Conditions: dose 6.3 g ai/10 a, evaluated 21st day after application. The essentials:
as §2

The subject of data set [16] is slender amaranth (Am). The data set is described as above. Conditions: dose 6.3 g ai/10 a, evaluated 21st day after application. Also noted: scale not given here. In kind it is in vivo. The essentials:
as §2

In data set [17] the test system is green foxtail (Se). Described as above. The arrangement: scale not given here. In kind it is in vivo. Conditions: dose 6.3 g ai/10 a, evaluated 21st day after application. In short, it runs like this:
as §2

The test system of data set [18] is common lambsquarters (Ch). Kind of data set: Test Example 7: crop plant selectivity by upland field soil treatment (corn), herbicidal effects. In kind it is in vivo. Also noted: scale not given here. Conditions: dose 6.3 g ai/10a, 21st day after application. The essentials:
(§5)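 Greenhouse pot test in sand with soil cover over seeds of corn and weeds sown together; scored 21 d after treatment.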

In data set [19] the test system is China jute (Ab). Described as above. Conditions: dose 6.3 g ai/10a, 21st day after application. Also noted: scale not given here. The class given is in vivo. In short, it runs like this:
as §5

Data set [20] concerns pale smartweed (Po). The description is as above. The class given is in vivo. The arrangement: scale not given here. Conditions: dose 6.3 g ai/10a, 21st day after application. In short, it runs like this: as §5
Data set [21] deals with slender amaranth (Am). The data set is described as above. The arrangement: scale not given here. Conditions: dose 6.3 g ai/10a, 21st day after application. In kind it is in vivo. The essentials: as §5
In data set [22] the test system is green foxtail (Se). The description is as above. The class given is in vivo. Also noted: scale not given here. Conditions: dose 6.3 g ai/10a, 21st day after application. In short, it runs like this: as §5
In data set [23] the test system is rice flatsedge (Ci). Put plainly: Test Example 2: herbicidal effects by upland field soil treatment.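 Further: grade of growth control; 5 = at least 90%; 4 = 70 to 90%; 3 = 50 to 70%; 2 = 30 to 50%; 1 = 10 to 30%; 0 = under 10%.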 In kind it is in vivo. Conditions: 100 g of the active ingredient per 10 ares, evaluated on the 21st day after application. The text has this: (§6) (Test on Herbicidal Effects by Upland Field Soil Treatment)
Data set [24] relates to common lambsquarters (Ch). The data set is described as above. The class given is in vivo. Conditions: 100 g of the active ingredient per 10 ares, evaluated on the 21st day after application.
Excerpt: as §6

Data set [25] has as its system Digitaria ciliaris (Di). Described as above. The class given is in vivo. Conditions: 100 g of the active ingredient per 10 ares, evaluated on the 21st day after application.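 Further: grade of growth control; 5 = at least 90%; 4 = 70 to 90%; 3 = 50 to 70%; 2 = 30 to 50%; 1 = 10 to 30%; 0 = under 10%.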
Excerpt: as §6

Data set [26] concerns pale smartweed (Po). The description is as above. Conditions: 100 g of the active ingredient per 10 ares, evaluated on the 21st day after application. The class given is in vivo.
Excerpt: as §6

The test system of data set [27] is slender amaranth (Am). The data set is described as above. In kind it is in vivo. Conditions: 100 g of the active ingredient per 10 ares, evaluated on the 21st day after application.
Excerpt: as §6

The test system of data set [28] is barnyardgrass (Ec). The data set is described as above. The class given is in vivo. Conditions: 100 g of the active ingredient per 10 ares, evaluated on the 21st day after application.
Excerpt: as §6

Data set [29] concerns common lambsquarters (Ch). Kind of data set: Test Example 11: crop plant selectivity by upland field foliage treatment (corn), herbicidal effects. The class given is in vivo. The arrangement: scale not given here. Conditions: upland field foliage treatment (corn test), dose 1.6 g ai/10a, 14th day after treatment. In short, it runs like this:
as §1

For data set [30], the system named is China jute (Ab). The data set is described as above. The class given is in vivo. The arrangement: scale not given here. Conditions: upland field foliage treatment (corn test), dose 1.6 g ai/10a, 14th day after treatment. In short, it runs like this:
as §1

Data set [31] deals with pale smartweed (Po). Described as above. Conditions: upland field foliage treatment (corn test), dose 1.6 g ai/10a, 14th day after treatment. The arrangement: scale not given here. In kind it is in vivo. The essentials: as §1
Data set [32] concerns slender amaranth (Am). The data set is described as above. Also noted: scale not given here. Conditions: upland field foliage treatment (corn test), dose 1.6 g ai/10a, 14th day after treatment. In kind it is in vivo. The essentials: as §1
The subject of data set [33] is corn (Ze). Kind of data set: Test Example 7: crop plant selectivity by upland field soil treatment (corn), phytotoxicity. The class given is in vivo. Also noted: scale not given here. Conditions: dose 6.3 g ai/10a, 21st day after application. The essentials:
as §5

The subject of data set [34] is wheat (Tr). Kind of data set: Test Example 9: crop plant selectivity by upland field foliage treatment (wheat), phytotoxicity.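 Further: grade of crop injury; 5 = at least 90%; 4 = 70 to 90%; 3 = 50 to 70%; 2 = 30 to 50%; 1 = 10 to 30%; 0 = under 10%.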 Conditions: dose 1.6 g ai/10a, 14th day after treatment. The essentials:
as §3

The subject of data set [35] is bulrush (Sc). Put plainly: Test Example 1: herbicidal effects by paddy field soil treatment.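 Further: grade of growth control; 5 = at least 90%; 4 = 70 to 90%; 3 = 50 to 70%; 2 = 30 to 50%; 1 = 10 to 30%; 0 = under 10%.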 In kind it is in vivo. Conditions: 100 g of the active ingredient per 10 ares, 21st day after the application, index 0-5 of Table 47. In short, it runs like this:
(§7)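 Herbicidal effect was scored against a graded standard 21 days after treatment. Seeds were sown in puddled, leveled paddy soil flooded to 3 cm depth, and the active ingredient was applied at 100 g per 10 ares before greenhouse culture.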

The subject of data set [36] is monochoria (Mo). Described as above. The class given is in vivo. Conditions: 100 g of the active ingredient per 10 ares, 21st day after the application, index 0-5 of Table 47. The essentials:
as §7

Data set [37] has as its system barnyardgrass (Ec). Described as above. Conditions: 100 g of the active ingredient per 10 ares, 21st day after the application, index 0-5 of Table 47. The class given is in vivo. The essentials: as §7

In general, melting point refers to the temperature, or range, at which the solid turns liquid. Consider `Cn1c(C(F)(F)F)ccc(-c2c(Cl)cc(Cl)c3oc(C(Br)(Br)Br)cc23)c1=O` [4-40, 3-(5,7-dichloro-2-tribromomethylbenzofuran-4-yl)-1-methyl-6-trifluoromethyl-2-(1H)-pyridone], for which the melting point was in the range of 225 to 227 °C.
With `CC(C)C(=O)c1cc(-c2ccc(C(F)(F)F)n(C)c2=O)c(F)cc1Cl` [Compound 1-196], the “Phytotoxicity Ze” value in data set [1] amounted to 2; in data set [33] it was 1. In addition, in data set [2], the “Phytotoxicity Go” value was found to be 0. The “Herbicidal effects Ch” value in data set [3], in data set [8], in data set [13], in data set [18], in [24] and in [29] was 5 in each case. For the same compound, the “Herbicidal effects Ab” value in data set [4], in data set [14], in data set [19] and in data set [30] was 5 throughout. Besides, the “Herbicidal effects Po” value in [5], in data set [10], in data set [15], in [20], in [26] and in data set [31] was 5 each time. In addition, the “Herbicidal effects Am” value in data set [6], in [11], in [16], in data set [21], in [27] and in [32] was 5 throughout. The “Herbicidal effects Ci” value in data set [7] and in data set [23] was 5 in each case. Besides, the “Herbicidal effects Di” value in [9] and in [25] was 5 throughout. In addition, the “Herbicidal effects Ec” value in [12], in data set [28] and in data set [37] was 5 throughout. Also, the “Herbicidal effects Se” value in [17] and in data set [22] was 5 each time. Also, in data set [34], the “Phytotoxicity Tr” value is given as 2. In data set [35], the “Herbicidal effects Sc” value worked out at 5. Also, in data set [36], the “Herbicidal effects Mo” value is reported as 5.
